Experiment [1] has as its target Mu-type opioid receptor (Mus musculus, UniProt P42866). Nature of the experiment: Displacement of [3H]DAMGO from mu opioid receptor in ICR mouse whole brain. (Displacement assays read how much labelled ligand stays bound in the presence of the test substance.)
Experiment [2] has as its target Delta-type opioid receptor (Mus musculus, UniProt P32300). Nature of the experiment: Displacement of [3H]DPDPE from delta opioid receptor in ICR mouse whole brain.
In experiment [3] the target is Mu-type opioid receptor (Mus musculus) (UniProt P42866). Nature of the experiment: Inhibition of mu opioid receptor-mediated DAMGO induced activation of G-Protein in ICR mouse brain at 0.1 to 1 uM by [35S]GTPgammaS binding. The class given is functional. In general terms: GTPγS is a poorly hydrolysed GTP analogue; its binding reports G protein activation.
For experiment [4] the target is unchanged. Nature of the experiment: Activation of mu opioid receptor-mediated G-protein activation in ICR mouse whole brain at 10 uM by [35S]GTPgammaS binding in presence of Beta-FNA. The format is functional.
The subject of experiment [5] is Mus musculus. Nature of the experiment: Antinociceptive activity against sc dosed ICR mouse by hot plate method. The class given is functional, organism-based.
The subject of experiment [6] is Mus musculus. The experiment in a line: Antinociceptive activity against sc dosed ICR mouse by tail flick method. The class given is functional, organism-based. (Thermal pain tests record how soon the animal reacts.)
Experiment [7] deals with Kappa-type opioid receptor (Cavia porcellus, UniProt P41144). The experiment in a line: Displacement of [3H]U69593 from kappa opioid receptor in guinea pig cerebellum.
Experiment [8] addresses Delta-type opioid receptor (Mus musculus) (UniProt P32300). Nature of the experiment: Inhibition of delta opioid receptor-mediated SNC80 induced activation of G-Protein in ICR mouse brain at 0.1 to 1 uM by [35S]GTPgammaS binding. The format is functional, tissue-based.
Experiment [9] addresses Kappa-type opioid receptor (Cavia porcellus) (UniProt P41144). The experiment in a line: Inhibition of kappa opioid receptor-mediated U50488 induced activation of G-Protein in guinea pig cerebellum at 0.1 to 1 uM by [35S]GTPgammaS binding. The format is functional, tissue-based.

Active and inactive are the calls of the source. No cut-off for these calls is given here. Bounds are passed on as bounds.

By IC50 is commonly meant the concentration needed to halve the response being measured.

Chain of Mu-type opioid receptor (Mus musculus) (P42866 whole entry): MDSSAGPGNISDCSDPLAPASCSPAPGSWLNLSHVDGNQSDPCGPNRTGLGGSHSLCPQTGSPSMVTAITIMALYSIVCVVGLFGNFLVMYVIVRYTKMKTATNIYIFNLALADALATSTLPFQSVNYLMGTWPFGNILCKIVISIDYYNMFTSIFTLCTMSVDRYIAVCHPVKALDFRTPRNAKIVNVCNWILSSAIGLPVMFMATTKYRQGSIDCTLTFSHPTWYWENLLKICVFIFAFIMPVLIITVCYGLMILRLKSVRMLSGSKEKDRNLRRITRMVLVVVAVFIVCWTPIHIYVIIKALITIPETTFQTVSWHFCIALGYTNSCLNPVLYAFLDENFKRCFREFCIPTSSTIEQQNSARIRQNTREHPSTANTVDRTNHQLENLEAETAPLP
Chain of Delta-type opioid receptor (P32300 whole entry): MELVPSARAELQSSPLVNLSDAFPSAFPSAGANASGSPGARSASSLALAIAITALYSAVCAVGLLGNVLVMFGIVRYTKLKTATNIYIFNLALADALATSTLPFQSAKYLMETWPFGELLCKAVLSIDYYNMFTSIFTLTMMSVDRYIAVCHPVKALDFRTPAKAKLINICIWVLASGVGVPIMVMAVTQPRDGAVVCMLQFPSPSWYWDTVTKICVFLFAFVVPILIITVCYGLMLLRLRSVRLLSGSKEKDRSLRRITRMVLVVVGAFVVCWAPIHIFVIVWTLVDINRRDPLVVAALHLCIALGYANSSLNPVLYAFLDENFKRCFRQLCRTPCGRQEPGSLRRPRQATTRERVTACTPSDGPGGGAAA
Chain of Mu-type opioid receptor (P42866 whole entry): as the sequence (P42866 whole entry) above
Chain of Kappa-type opioid receptor (P41144 whole entry): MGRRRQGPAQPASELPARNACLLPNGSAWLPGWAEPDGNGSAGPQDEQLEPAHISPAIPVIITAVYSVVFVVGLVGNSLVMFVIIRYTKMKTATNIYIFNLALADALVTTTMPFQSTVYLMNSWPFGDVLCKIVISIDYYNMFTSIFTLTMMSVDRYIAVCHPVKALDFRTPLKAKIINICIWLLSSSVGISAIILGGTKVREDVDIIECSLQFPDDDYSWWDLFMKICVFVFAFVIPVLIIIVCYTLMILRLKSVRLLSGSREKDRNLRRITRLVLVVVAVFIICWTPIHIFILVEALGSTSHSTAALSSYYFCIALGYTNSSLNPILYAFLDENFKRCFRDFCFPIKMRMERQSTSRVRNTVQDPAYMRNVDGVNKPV
Chain of Delta-type opioid receptor (Mus musculus) (P32300 whole entry): as the sequence (P32300 whole entry) above
Chain of Kappa-type opioid receptor (Cavia porcellus) (P41144 whole entry): as the sequence (P41144 whole entry) above

As to `COc1ccc2c3c1OC[C@H]1CC[C@]4(O)[C@H](C2)N(C)CC[C@@]34C1`, the IC50 is 183 nM in [1], under 500 nM in [2] and under 500 nM in [7]. For the same molecule, the outcome in [3] was Active. The outcome in experiment [4] was inactive. Further, the Activity result in experiment [5] and in [6] was “Dose-dependent effect” in each case.
Consider `Oc1ccc2c3c1OC[C@H]1CC[C@]4(O)[C@H](C2)N(CC2CC2)CC[C@@]34C1`, for which the IC50 in experiment [1] was 1.21 nM; in [2], 57.3 nM; in experiment [7], 0.98 nM. Also, the outcome in experiment [3], in experiment [8] and in [9] was Active.

The record behind these values is ChEMBL document CHEMBL1149881, “Syntheses of 4,6'-epoxymorphinan derivatives and their pharmacologies” (Bioorg Med Chem, 2008).
